This is an account of results in patent publication US4182760A, “Benzophenone anti-oximes, diazepin-N-oxides, and their use as pharmaceutical agents and as intermediates for pharmaceutical agents” (E. I. Du Pont de Nemours and Company, priority 1977, dated 1980).

One test concerns tactile pinna reflex. Description: Tactile Pinna Reflex test (loss of tactile pinna reflex). The test is classed as in vivo, mouse. The conditions noted are these: fasted female white mice, intubated (oral), tested at 0.5, 2, 5 and 24 hours; for ED50: Mus musculus, read-out: Mouse ED50, Pinna Reflexes, Tactile. Here is the method: (§1) Standard procedures for detecting and comparing the tranquilizer, muscle-relaxant, and sedative activity of compounds in this series for which there is a correlation with human efficacy are the following: pinna reflex tests, prehensile traction reflex tests, a muscle relaxant (anti-Straub tail) test, an antipentylenetetrazole test, and a mouse activity supression test (MAST).
(§2) Fasted female white mice, 5 per dose are intubated with drug at 4, 12, 36, 108 and 324 mg/kg in 1% Methocel®-1.25% Tween 80®, at 10 ml/kg. The auditory and tactile pinna are tested at 0.5, 2, 5 and 24 hours.
The mouse is held by the tail and the hairs inside the right ear are touched by the fine wire stylus from a 27 gauge needle. Failure of the mouse to twitch or move the head constitutes loss of the tactile pinna reflex.
(§3) Potency in the antipentylenetetrazole (PTZ) and the MAST indicates a potent antianxiety agent. Great potency for blockade of the mouse auditory pinna reflex with little or no effect on tactile pinna reflex is characteristic of minor tranquilizers. Centrally acting skeletal muscle relaxants profoundly affect the lift reflex with little effect on the grip reflex.
(§4) The following table includes the results of these tests conducted with the compounds of this invention; it also includes the results for diazepam and chlordiazepoxide, two well-known benzodiazepines widely-used commercially as tranquilizers.

The test system of test [1] is morphine-induced Straub tail. The experiment in a line: Muscle relaxant (anti-Straub tail) test. The test is classed as in vivo, mouse. The conditions noted are these: fasted female white mice, intubated (oral), morphine sulfate 53.7 mg/kg s.c. at 25 min, observed 30 min after test drug; for ED50: Mus musculus, 0.5 h.
Text: as §1
MUSCLE RELAXANT (ANTI-STRAUB TAIL) TEST
Fasted female white mice, 5 per dose are intubated with test drug. Twenty-five minutes later morphine sulfate is given subcutaneously at 53.7 mg/kg. Thirty minutes after test drug the mice are observed for presence of Straub tail. Quantal ED50 values for blockade of morphine-induced Straub tail are calculated.
as §3, §4

For test [2], the system named is shock-induced suppression of exploratory locomotor behavior. Description: Mouse activity suppression test (MAST). The conditions noted are these: fasted female white mice, dosed orally, 0.2 ma shock for 2.0 seconds per crossing; for ED20: Mus musculus, po. In kind it is in vivo.
Text: as §1
MOUSE ACTIVITY S[…] (MAST)
The mouse activity s[…] (MAST) is a model system designed to detect compounds with possible antianxiety activity in humans. […] The punishment, an electric shock applied through the mouse's paws, quickly extinguishes normal behavior.
The test procedure is modified from Boissier, et al., European J. Pharm., 4, 145-151 (1968). Female white mice, fasted 16-22 hours, are randomly distributed to fiberglass holding boxes. Mice in groups of 10-20 are dosed orally and returned to their holding boxes until test time. Test drug suspensions or solutions are prepared by sonication in 1% Methocel®. Typical dose ranges include 0.5, 1, 2, and 4 mg/kg of 1, 3, 9, 27, 81 mg/kg plus a vehicle control and are selected to include one dose at which an effect such as sedation, stimulation, muscle weakness or analgesia was seen.
The test apparatus is an opaque, black plastic box with a clear lid and a stainless steel grid floor. The floor of the test box is marked off into four squares of equal size.
After dosing, a mouse is gently placed in one corner of the testing box and during the next minute each time the mouse makes a full crossing from one square section of the box to another the floor is electrified with 0.2 ma current for 2.0 seconds.
The number of shocks received by each mouse is recorded and the mean number of shocks/dose (X) is determined. When X drug at any dose is statistically greater than X controls (Kruskal-Wallis test in S. Siegel^1), antagonism of suppression obtains and the drug is presumed to have antianxiety activity.
^1 S. Siegel: Non-parametric Statistics for Behavioral Sciences, pp. 184-194, McGraw-Hill (1956).
as §3, §4

The test system of test [3] is pentylenetetrazole (PTZ) clonic convulsions. The experiment in a line: Antipentylenetetrazole (PTZ) test. The test is classed as in vivo, mouse. Conditions: fasted female white mice, intubated (oral), PTZ 40 mg/kg i.v. 30 min later; for ED50: Mus musculus, 0.5 h.
Text: as §1
ANTIPENTYLENETETRAZOLE (PTZ) TEST
Fasted female white mice, 10 per dose are intubated with drug in vehicle as above at doses such as 0, 1, 3, 9, 27 and 81 mg/kg. Thirty minutes later the mice are dosed intravenously with PTZ (Metrazol®^1) at 40 mg/kg (ED98 for clonic convulsions). Dosed animals which remain on a 4"×4" platform for 20 seconds are considered protected. Quantal ED50's are calculated by the moving average method.
^1 Original brand of pentylenetetrazole; sterile 10% aqueous solution for parenteral injection, Knoll Pharmaceutical Company.
as §3, §4

Another test deals with lift reflex. Description: Prehensile traction test, lift reflex. The conditions noted are these: loss of lift reflex; for ED50: mouse, read-out: Mouse ED50, Prehensile Reflexes, Lift. The test is classed as in vivo.
Text: (§5) Standard procedures for detecting and comparing the tranquilizer, muscle-relaxant, and sedative activity of compounds in this series for which there is a correlation with human efficacy are the following: pinna reflex tests, […] reflex tests, a muscle relaxant (anti-Straub tail) test, an antipentylenetetrazole test, and a mouse activity supression test (MAST).
(§6) The mouse is gently swung by the tail toward a horizontal 12 gauge wire tautly stretched 25 cm above the bench. After the mouse grasps the wire with its forepaws, its posterior end is held directly below the wire. A normal mouse grasps the wire with its forepaws and immediately lifts its hind limbs to the wire. Failure to grasp the wire with the forepaws in one of 2 trials constitutes loss of the grip reflex; failure to lift the hind limbs to grasps the wire with at least one hind paw within 5 seconds constitutes loss of the lift reflex.
as §3, §4

A further test relates to auditory pinna reflex. The experiment in a line: Auditory Pinna Reflex test (loss of auditory pinna reflex). Conditions: fasted female white mice, intubated (oral), tested at 0.5, 2, 5 and 24 hours; for ED50: Mus musculus, read-out: Mouse ED50, Pinna Reflexes, Auditory. In kind it is in vivo, mouse. The method, then: as §1, §2
The mouse is placed on a horizontal bar 9 cm from a Galton whistle adjusted for 13 Kc. Failure to flatten the ears during one or two short bursts of sound constitutes loss of auditory pinna reflex.
as §3, §4

For the next test, the system named is grip reflex. Description: Prehensile traction test, grip reflex. In kind it is in vivo. The conditions noted are these: loss of grip reflex; for ED50: mouse, read-out: Mouse ED50, Prehensile Reflexes, Grip.
Text: as §5, §6, §3, §4

For “5-Chloro-2-(N-methyl-N-chlorofluoroacetamido)benzophenone anti-Oxime [(I)]”, in the test on tactile pinna reflex, the “Mouse ED50, Pinna Reflexes, Tactile” value was determined as 360. In addition, the “Mouse ED50, Muscle Relaxant” value in test [1] is on record as 5.8. Also, the “Mast ED20%” value in test [2] is 3.5. Further, the “Mouse ED50, PTZ” value in test [3] was 4.5. For the same compound, the “Mouse ED50, Prehensile Reflexes, Lift” value in the test with lift reflex worked out at 36. In addition, the “Mouse ED50, Pinna Reflexes, Auditory” value in the test with auditory pinna reflex is on record as 23. The “Mouse ED50, Prehensile Reflexes, Grip” value in the test with grip reflex is recorded as 70.

Regarding `CN1C(=O)C(F)[N+]([O-])=C(c2ccccc2)c2cc(Cl)ccc21` (stereo not shown) [(II), 7-Chloro-3-fluoro-1,3-dihydro-1-methyl-5-phenyl-2H-1,4-benzodiazepin-2-one 4-Oxide], the ED50 (commonly the midpoint of the dose-response relation) was > 450 mg/kg in the test on tactile pinna reflex; 1.7 mg/kg in test [1]; 3.9 mg/kg in test [3]; 62 mg/kg in the test on lift reflex; 62 mg/kg with auditory pinna reflex; > 450 mg/kg in the test on grip reflex. Further, in test [2], the ED20 was found to be 0.35 mg/kg.

Take `CNC1=Nc2ccc(Cl)cc2C(c2ccccc2)=[N+]([O-])C1` [Chlordiazepoxide]: the median effective dose (ED50) stood at 209 mg/kg in the test with tactile pinna reflex; 1.9 mg/kg in test [1]; 4.5 mg/kg in test [3]; 11 mg/kg in the test on lift reflex; 17 mg/kg with auditory pinna reflex; 232 mg/kg with grip reflex. The ED20 in test [2] stood at 1.9 mg/kg.

`CN1C(=O)CN=C(c2ccccc2)c2cc(Cl)ccc21` [Diazepam]: the ED50 stood at 109 mg/kg with tactile pinna reflex; 0.25 mg/kg in test [1]; 1.3 mg/kg in test [3]; 6 mg/kg with lift reflex; 4 mg/kg in the test on auditory pinna reflex; 97 mg/kg with grip reflex. The compound also came in with an ED20 in test [2] of 0.45 mg/kg.
